Data as given in US8597904B2, “Pharmaceutical compositions for the treatment of conditions responsive to proteasome inhibition” (priority 2007, dated 2013).
Like-named read-outs stand apart in the source and are kept apart here.

How the values were obtained:
TH-MYCN transgenic mouse = test: tumor reduction in TH-MYCN mouse model of human neuroblastoma; format: in vivo; details: homozygous mice, i.p. and/or i.v., every 72 hours for 3 to 6 weeks, vs untreated mice
Excerpt: The TH-MYCN transgenic mouse is a well-established neuroblastoma mouse model (Hansfored, et al. 2004. PNAS 101(34):12664-12669; Weiss, et al. 2007. Cancer Res 67(19):9435-9442; Weiss, et al. 2000. Cancer Res 6″2483-2487, each of which is incorporated herein by reference in its entirety). The tumors are caused by targeted expression of MYCN to the neural crest under the control of the rat tyrosine hydroxylase promoter, where the mice develop a tumor phenotype that closely resembles the human disease. The tumors in this strain of mouse generally develop in the abdominal and thoracic areas. TH-MYCN breeder pairs are supplied as hemizygote (129×1/SvJ-Tg(TH-MYCN)41Waw) and a wild type mate (129×1/SvJ).
Test compounds are administered to homozygous mice at a dose that is developed based upon the results of the initial dose and toxicity study (Example 15). Two to four doses per compound are administered by i.p. and/or i.v. methods into homozygous mice when palpable tumors begin to form. Vehicle is delivered […] as a control. Further doses are administered thereafter every 72 hours for 3 to 6 weeks. Between eight to twelve mice are tested in the study for administration of each compound. […] At the conclusion of the study, the mice are sacrificed and tumor size and number of tumors are assessed.

[1] = target: T1, proteasome activity in SKOV3 ovarian cancer cells (Homo sapiens, UniProt P28074); test: Proteasome-Glo cell-based luminescent assay
T1 construct: in vivo proteasome activity in SK-N-SH neuroblastoma cells and SKOV3 human ovarian cancer cells; endogenous in cells; host or cells: SKOV3
T1 sequence (P28074 60-263): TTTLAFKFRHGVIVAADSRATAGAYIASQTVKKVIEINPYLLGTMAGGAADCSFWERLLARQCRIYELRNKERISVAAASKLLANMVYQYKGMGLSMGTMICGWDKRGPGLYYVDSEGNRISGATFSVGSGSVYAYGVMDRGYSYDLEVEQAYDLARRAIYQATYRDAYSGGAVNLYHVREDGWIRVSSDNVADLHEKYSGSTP
Procedure: Syringolin A was tested as a proteasome inhibitor in vivo in cultured mammalian cancer cells. Inhibition of proteasome activity in human SK-N-SH neuroblastoma cells was measured using the Proteasome-Glo™ cell-based luminescent assay (Promega) in solid white 96-well microtiter cell culture plates. Ten μl of syringolin A (at various concentrations) was added to each well containing SK-N-SH cells (plated at a concentration of 1.0×10^5 cells/ml in 90 μl well volumes 24 hours prior) and a negative control and media only control were included. Cells were incubated with 1-100 μM syringolin A for 2 hours or 24 hours, and then equilibrated to room temperature for 15 minutes before 100 μl of Proteasome-Glo reagent (containing bioluminescent substrate Suc-LLVY-aminoluciferin) was added to the cells. Luminescence (indicated as relative luminescence units [RLU]) was read after 15-30 minutes on a Dynex MLX Luminometer.
The cell culture-based proteasome inhibition assay was performed as previously described (Groll et al. 2008. Nature 452:755-758, which is incorporated herein by reference in its entirety). Briefly, wells of white-walled 96-well microtiter cell culture plates were seeded at a density of 1×10^4 cells/well (SK-N-SH) or 5×10^3 cells/well (SKOV3) in 90 μl. After 24 hours, 10 μl GlbA or SylA were added at increasing concentrations (0-100 μM) and incubated for 2 hours. […] Cell Death Differ 9:1017-1025; Meng, et al. 1999. PNAS 96:10403-10408, each of which is incorporated herein by reference in its entirety) were used as positive and negative controls, respectively. Microtiter plates were then equilibrated to room temperature for 15 min before adding 100 μl of proteasome Glo™ reagent (containing bioluminescent substrate Suc-LLVY-aminoluciferin) per well. Luminescence was measured on a Dynex MLX luminometer, according to the manufacturer's instructions (Promega).

Structure (SMILES) | size and number of tumors (TH-MYCN transgenic mouse) | IC50 ([1]; SKOV3, 2 hours, read-out: IC50 of proteasomal activity) [µM] | potency of GlbA relative to SylA ([1]; SKOV3, ratio of IC50) | IC50 [1] [µM] | proteasome activity in cells ([1]; SKOV3, 2 hours incubation, listed as SylA)
CCCCCCC/C=C/C=C/C(=O)N[C@H](C(=O)N[C@H]1C[C@@H](O)CCNC(=O)/C=C/[C@H](C)NC1=O)[C@@H](C)O [glidobactin A] | effective in reducing both the size and number of tumors | 0.25 | approximately 16 fold |  | 
CC(C)[C@H](NC(=O)N[C@H](C(=O)N[C@H]1/C=C/CCNC(=O)/C=C/[C@H](C(C)C)NC1=O)C(C)C)C(=O)O [syringolin A] | effective in reducing both the size and number of tumors |  |  | 4.03 | dose-dependent manner
